Data as given in BindingDB's records for doi:10.1073/pnas.83.22.8784 (The Oregon Health Sciences University, 1986).

Tests used:
[1] = biological target: T1, Alpha-2C adrenergic receptor (Rattus norvegicus, UniProt P22086)
T1 sequence (P22086 whole entry): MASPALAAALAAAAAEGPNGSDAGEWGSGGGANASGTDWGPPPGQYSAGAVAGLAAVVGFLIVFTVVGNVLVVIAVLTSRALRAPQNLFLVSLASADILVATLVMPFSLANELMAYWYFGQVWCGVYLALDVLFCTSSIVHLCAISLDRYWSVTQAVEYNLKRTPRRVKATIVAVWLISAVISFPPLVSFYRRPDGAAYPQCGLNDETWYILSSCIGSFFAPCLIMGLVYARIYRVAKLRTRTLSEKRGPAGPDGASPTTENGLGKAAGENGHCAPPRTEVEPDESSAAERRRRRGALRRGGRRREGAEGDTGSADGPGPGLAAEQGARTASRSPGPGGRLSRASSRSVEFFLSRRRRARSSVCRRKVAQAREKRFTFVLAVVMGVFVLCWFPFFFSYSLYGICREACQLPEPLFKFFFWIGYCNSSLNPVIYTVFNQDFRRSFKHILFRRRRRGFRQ

[2] = biological target: 5-hydroxytryptamine receptor 2A (Rattus norvegicus, UniProt P14842)
5-hydroxytryptamine receptor 2A, sequence (P14842 whole entry): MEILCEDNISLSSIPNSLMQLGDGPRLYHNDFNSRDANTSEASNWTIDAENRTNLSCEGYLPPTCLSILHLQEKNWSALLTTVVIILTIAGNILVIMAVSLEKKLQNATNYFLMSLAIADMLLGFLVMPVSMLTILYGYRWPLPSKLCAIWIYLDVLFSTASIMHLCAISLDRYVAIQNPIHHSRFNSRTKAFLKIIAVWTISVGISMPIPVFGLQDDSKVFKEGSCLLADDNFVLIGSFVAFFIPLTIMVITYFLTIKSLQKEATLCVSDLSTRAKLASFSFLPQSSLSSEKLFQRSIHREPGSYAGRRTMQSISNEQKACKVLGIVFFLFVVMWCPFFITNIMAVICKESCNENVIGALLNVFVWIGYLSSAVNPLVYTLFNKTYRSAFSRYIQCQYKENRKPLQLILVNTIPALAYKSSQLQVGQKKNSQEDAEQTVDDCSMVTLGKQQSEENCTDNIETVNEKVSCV

[3] = biological target: T2, Alpha-1A adrenergic receptor (Rattus norvegicus, UniProt P43140)
T2 sequence (P43140 whole entry): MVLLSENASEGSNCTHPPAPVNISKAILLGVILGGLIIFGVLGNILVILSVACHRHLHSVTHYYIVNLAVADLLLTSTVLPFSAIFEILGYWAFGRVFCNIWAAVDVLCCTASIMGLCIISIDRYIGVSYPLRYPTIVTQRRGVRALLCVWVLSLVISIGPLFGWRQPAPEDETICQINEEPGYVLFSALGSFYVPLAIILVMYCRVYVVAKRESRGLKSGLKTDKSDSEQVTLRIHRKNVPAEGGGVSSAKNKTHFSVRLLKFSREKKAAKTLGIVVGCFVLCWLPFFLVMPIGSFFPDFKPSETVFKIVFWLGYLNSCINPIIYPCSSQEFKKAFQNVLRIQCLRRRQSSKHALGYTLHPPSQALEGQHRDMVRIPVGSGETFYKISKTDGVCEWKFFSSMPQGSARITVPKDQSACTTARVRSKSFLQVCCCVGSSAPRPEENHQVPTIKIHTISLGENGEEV

Compound | Ki [1] [nM] | Ki [2] [nM] | Ki [3] [nM]
NC(N)=NN=Cc1c(Cl)cccc1Cl [Guanabenz] | > 10000 | 200 | –
Cc1nc2sccn2c(=O)c1CCN1CCC(=C(c2ccc(F)cc2)c2ccc(F)cc2)CC1 | 631 | – | 191

Next, values leading:

Ki [1] [nM] | Ki [2] [nM] | Ki [3] [nM] | Compound
282 | 6 | 257 | Cc1nc2ccccn2c(=O)c1CCN1CCC(=C(c2ccc(F)cc2)c2ccc(F)cc2)CC1 [NSC_159037]
417 | 4.5 | 120 | Cn1c(=O)c2c(ncn2CCN2CCC(C(=O)c3ccc(F)cc3)CC2)n(C)c1=O [NSC_71255]
295 | – | 72.4 | O=C(c1ccc(F)cc1)C1CCN(CCn2c(=O)[nH]c3ccccc3c2=O)CC1 [3-(2-{4-[(4-fluorophenyl)carbonyl]piperidin-1-yl}ethyl)-1,2,3,4-tetrahydroquinazoline-2,4-dione]
75.9 | – | 1.86 | O=C(c1ccc(F)cc1)C1CCN(CCCCn2c(=O)[nH]c3ccccc3c2=O)CC1 [CAS_87051-46-5]
